# In PubChem BioAssay AID256 (DTP/NCI, 2004):
# Where “and” joins values, the source holds several entries; their conditions need not be identical. Equal values may be shown once. Toxic doses and inconclusive results are not listed.
# System: CD2F1 mice, L1210 leukemia ip, survival T/C
# Test: NCI In Vivo Anticancer Drug Screen. Data for tumor model L1210 Leukemia (intraperitoneal) in CD2F1 (CDF1) mice
# Settings: higher = longer survival
# Method in brief: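 Transplantable tumor in mice; compound-treated vs vehicle-treated groups. Read-out = treated/control ratio of the measured endpoint.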
# [1] = endpoint: mean survival time, dose: 50.0 mg/kg/injection, schedule: Q01DX001 (ip), vehicle: saline
# [2] = endpoint: mean survival time, dose: 100.0 mg/kg/injection, schedule: Q01DX001 (ip), vehicle: saline
# [3] = endpoint: mean survival time, dose: 200.0 mg/kg/injection, schedule: Q01DX001 (ip), vehicle: saline
# [4] = endpoint: mean survival time, dose: 100.0 mg/kg/injection, schedule: Q01DX009 (ip), vehicle: saline with Tween-80
# [5] = endpoint: mean survival time, dose: 100.0 mg/kg/injection, schedule: Q04DX003 (ip), vehicle: saline with Tween-80
# [6] = endpoint: mean survival time, dose: 200.0 mg/kg/injection, schedule: Q01DX009 (ip), vehicle: saline with Tween-80
# [7] = endpoint: mean survival time, dose: 200.0 mg/kg/injection, schedule: Q04DX003 (ip), vehicle: saline with Tween-80
# [8] = endpoint: mean survival time, dose: 400.0 mg/kg/injection, schedule: Q01DX009 (ip), vehicle: saline with Tween-80
# [9] = endpoint: mean survival time, dose: 400.0 mg/kg/injection, schedule: Q04DX003 (ip), vehicle: saline with Tween-80
# [10] = endpoint: mean survival time, dose: 400.0 mg/kg/injection, schedule: Q01DX001 (ip), vehicle: saline
structure (smiles),measurement,setting,value
CN(C)CCC(=O)c1ccco1,T/C,"endpoint: mean survival time, dose: 25.0 mg/kg/injection, schedule: Q01DX001 (ip), vehicle: saline",104 % of control
same,T/C,[1],95 % of control
same,T/C,[2],97 % of control and 103 % of control
Cn1nc2ccccc2c1C#N,T/C,[1],102 % of control
same,T/C,[2],103 % of control
same,T/C,[3],96 % of control
Nc1nc(N)c2nc(CSc3ccc(C(=O)NC(CCC(=O)O)C(=O)O)cc3)ccc2n1 (stereo unspecified),T/C,"endpoint: mean survival time, dose: 0.5 mg/kg/injection, schedule: Q01DX005 (ip), vehicle: sodium bicarbonate",121 % of control
same,T/C,"endpoint: mean survival time, dose: 2.0 mg/kg/injection, schedule: Q01DX005 (ip), vehicle: sodium bicarbonate",154 % of control
COC(=O)c1cc(C)[nH]c(=O)c1C#N,T/C,[4],100 % of control
same,T/C,[5],95 % of control
same,T/C,[6],100 % of control
same,T/C,[7],98 % of control
same,T/C,[8],94 % of control
same,T/C,[9],96 % of control
CCC1(O)C(=O)OCc2c1cc1n(c2=O)Cc2cc3ccc(C)cc3nc2-1 (stereo unspecified),T/C,"endpoint: median survival time, dose: 10.0 mg/kg/injection, schedule: Q04DX002 (ip), vehicle: saline with Tween-80",108 % of control
O=C(CCC(O)c1ccccc1)c1ccccc1 (stereo unspecified),T/C,"endpoint: mean survival time, dose: 50.0 mg/kg/injection, schedule: Q04DX002 (ip), vehicle: saline with Tween-80",97 % of control
same,T/C,"endpoint: mean survival time, dose: 100.0 mg/kg/injection, schedule: Q04DX002 (ip), vehicle: saline with Tween-80",91 % of control
same,T/C,"endpoint: mean survival time, dose: 200.0 mg/kg/injection, schedule: Q04DX002 (ip), vehicle: saline with Tween-80",91 % of control
CCOC(=O)C1CC2(CC(C(N)=O)C2)C1 (stereo unspecified),T/C,[2],103 % of control
same,T/C,[3],100 % of control
same,T/C,[10],93 % of control
O=C(O)c1cccc2c1-c1ccccc1C(Br)C2Br (stereo unspecified),T/C,"endpoint: mean survival time, dose: 25.0 mg/kg/injection, schedule: Q01DX009 (ip), vehicle: saline with Tween-80",93 % of control
same,T/C,"endpoint: mean survival time, dose: 50.0 mg/kg/injection, schedule: Q01DX005 (ip), vehicle: saline with Tween-80",100 % of control
same,T/C,"endpoint: mean survival time, dose: 50.0 mg/kg/injection, schedule: Q01DX009 (ip), vehicle: saline with Tween-80",93 % of control
same,T/C,"endpoint: mean survival time, dose: 100.0 mg/kg/injection, schedule: Q01DX005 (ip), vehicle: saline with Tween-80",88 % of control
same,T/C,[4],89 % of control
O=Cc1ccc[nH]1,T/C,[2],94 % of control
same,T/C,"endpoint: mean survival time, dose: 100.0 mg/kg/injection, schedule: Q04DX003 (ip), vehicle: saline",104 % of control
same,T/C,[3],100 % of control
same,T/C,"endpoint: mean survival time, dose: 200.0 mg/kg/injection, schedule: Q04DX003 (ip), vehicle: saline",101 % of control
same,T/C,[10],100 % of control
same,T/C,"endpoint: mean survival time, dose: 400.0 mg/kg/injection, schedule: Q04DX003 (ip), vehicle: saline",108 % of control
CC(=O)OCC1OC(n2ncnc2CI)C(OC(C)=O)C(OC(C)=O)C1OC(C)=O (stereo unspecified),T/C,"endpoint: median survival time, dose: 12.5 mg/kg/injection, schedule: Q01DX005 (ip), vehicle: distilled water + Tween-80",105 % of control
same,T/C,"endpoint: median survival time, dose: 25.0 mg/kg/injection, schedule: Q01DX005 (ip), vehicle: distilled water + Tween-80",105 % of control
same,T/C,"endpoint: median survival time, dose: 50.0 mg/kg/injection, schedule: Q01DX005 (ip), vehicle: distilled water + Tween-80",96 % of control
CCSC(C(O)C(O)C(O)CO)n1cc(F)c(=O)[nH]c1=O (stereo unspecified),T/C,"endpoint: mean survival time, dose: 12.5 mg/kg/injection, schedule: Q01DX005 (ip), vehicle: water",104 % of control
same,T/C,"endpoint: mean survival time, dose: 25.0 mg/kg/injection, schedule: Q01DX005 (ip), vehicle: water",105 % of control
same,T/C,"endpoint: mean survival time, dose: 50.0 mg/kg/injection, schedule: Q01DX005 (ip), vehicle: water",110 % of control
same,T/C,"endpoint: mean survival time, dose: 100.0 mg/kg/injection, schedule: Q01DX005 (ip), vehicle: water",105 % of control
same,T/C,"endpoint: mean survival time, dose: 200.0 mg/kg/injection, schedule: Q01DX005 (ip), vehicle: water",104 % of control
O=C(O)CNC(=O)CCNC(=O)OCc1ccccc1,T/C,[4],95 % of control
same,T/C,[6],93 % of control
same,T/C,[8],93 % of control
COC(=O)C1C2(C)CCc3cc(OC)ccc3C2=CC(=O)C1(C)C(=O)OC (stereo unspecified),T/C,"endpoint: mean survival time, dose: 100.0 mg/kg/injection, schedule: Q04DX003 (sc), vehicle: steriod suspending solution",97 % of control
same,T/C,"endpoint: mean survival time, dose: 200.0 mg/kg/injection, schedule: Q04DX003 (sc), vehicle: steriod suspending solution",103 % of control
same,T/C,"endpoint: mean survival time, dose: 400.0 mg/kg/injection, schedule: Q04DX003 (sc), vehicle: steriod suspending solution",98 % of control
CCCCCC(CN(C)C)C(=O)/C=C/c1c(Cl)cccc1Cl (stereo unspecified),T/C,"endpoint: mean survival time, dose: 6.25 mg/kg/injection, schedule: Q01DX009 (ip), vehicle: other",101 % of control
same,T/C,"endpoint: mean survival time, dose: 12.5 mg/kg/injection, schedule: Q01DX009 (ip), vehicle: other",101 % of control
same,T/C,"endpoint: mean survival time, dose: 25.0 mg/kg/injection, schedule: Q01DX009 (ip), vehicle: other",104 % of control
same,T/C,"endpoint: mean survival time, dose: 100.0 mg/kg/injection, schedule: Q01DX001 (ip), vehicle: Klucel (hydroxypropylcellulose) (HPC)",94 % of control
CC(O)C1OC(n2cnc3c(=O)[nH]cnc32)CC1O (stereo unspecified),T/C,"endpoint: median survival time, dose: 12.5 mg/kg/injection, schedule: Q01DX005 (ip), vehicle: water",100 % of control
same,T/C,"endpoint: median survival time, dose: 25.0 mg/kg/injection, schedule: Q01DX005 (ip), vehicle: water",100 % of control
same,T/C,"endpoint: median survival time, dose: 50.0 mg/kg/injection, schedule: Q01DX005 (ip), vehicle: water",104 % of control
same,T/C,"endpoint: median survival time, dose: 100.0 mg/kg/injection, schedule: Q01DX005 (ip), vehicle: water",102 % of control
same,T/C,"endpoint: median survival time, dose: 200.0 mg/kg/injection, schedule: Q01DX005 (ip), vehicle: water",102 % of control
CC(=O)OCC1C(OC(C)=O)CC2CCC1N2C#N (stereo unspecified),T/C,"endpoint: mean survival time, dose: 50.0 mg/kg/injection, schedule: Q04DX002 (ip), vehicle: Klucel (hydroxypropylcellulose) (HPC)",107 % of control
same,T/C,"endpoint: mean survival time, dose: 100.0 mg/kg/injection, schedule: Q04DX002 (ip), vehicle: Klucel (hydroxypropylcellulose) (HPC)",96 % of control
same,T/C,"endpoint: mean survival time, dose: 200.0 mg/kg/injection, schedule: Q04DX002 (ip), vehicle: Klucel (hydroxypropylcellulose) (HPC)",88 % of control and 89 % of control
C=NCC#N,T/C,[5],106 % of control
same,T/C,[7],101 % of control
CCOC(=O)C(N)C[S][Sn]([CH3])([CH3])[Cl] (stereo unspecified),T/C,"endpoint: median survival time, dose: 3.12 mg/kg/injection, schedule: Q01DX009 (ip), vehicle: saline",98 % of control
same,T/C,"endpoint: median survival time, dose: 6.25 mg/kg/injection, schedule: Q01DX009 (ip), vehicle: saline",97 % of control
same,T/C,"endpoint: median survival time, dose: 12.5 mg/kg/injection, schedule: Q01DX009 (ip), vehicle: saline",100 % of control
same,T/C,"endpoint: median survival time, dose: 25.0 mg/kg/injection, schedule: Q01DX009 (ip), vehicle: saline",89 % of control
CCOC(=O)Nc1cc2c(c(N)n1)N=C(c1ccccc1)CN2,T/C,"endpoint: median survival time, dose: 0.63 mg/kg/injection, schedule: Q01DX009 (ip), vehicle: saline with Tween-80",118 % of control and 101 % of control
same,T/C,"endpoint: median survival time, dose: 0.75 mg/kg/injection, schedule: Q01DX009 (ip), vehicle: saline with Tween-80",106 % of control
CCN(C(=O)CCl)c1ccccc1C,T/C,[5],92 % of control
same,T/C,[7],89 % of control
O=C(O)C1CC(c2ccccc2)=NN1c1ccccc1 (stereo unspecified),T/C,"endpoint: mean survival time, dose: 12.5 mg/kg/injection, schedule: Q01DX009 (ip), vehicle: water",101 % of control and 103 % of control and 104 % of control
same,T/C,"endpoint: mean survival time, dose: 25.0 mg/kg/injection, schedule: Q01DX009 (ip), vehicle: water",96 % of control and 101 % of control and 102 % of control
same,T/C,"endpoint: mean survival time, dose: 50.0 mg/kg/injection, schedule: Q01DX009 (ip), vehicle: water",96 % of control and 102 % of control (2×)
same,T/C,"endpoint: mean survival time, dose: 100.0 mg/kg/injection, schedule: Q01DX009 (ip), vehicle: water",93 % of control and 102 % of control and 104 % of control
same,T/C,"endpoint: mean survival time, dose: 200.0 mg/kg/injection, schedule: Q01DX009 (ip), vehicle: water",102 % of control (2×) and 112 % of control
O=[N+]([O-])c1ccc2c(c1)CS(=O)(=O)O2,T/C,[4],109 % of control
same,T/C,[5],103 % of control
same,T/C,[6],107 % of control
same,T/C,[7],100 % of control
same,T/C,[8],107 % of control
same,T/C,[9],95 % of control
O=[As](O)(CC(O)c1ccccc1)c1cccc(Cl)c1 (stereo unspecified),T/C,"endpoint: mean survival time, dose: 6.25 mg/kg/injection, schedule: Q04DX003 (ip), vehicle: saline with Tween-80",104 % of control
same,T/C,"endpoint: mean survival time, dose: 12.5 mg/kg/injection, schedule: Q04DX003 (ip), vehicle: saline with Tween-80",119 % of control
